Where a name gives a salt, the structure may show the parent alone. Read-outs that look alike come from different tables or passages of the source.

This note sets out measurements from patent publication US5681563A, “7-vinylidene cephalosporins and methods of using the same” (Research Corporation Technologies, Inc., priority 1996, dated 1997).

This assay deals with β-lactamase of Enterobacter cloacae P99 (Enterobacter cloacae, UniProt P05364). Put plainly: P99 β-lactamase inhibitory activity (loss of nitrocefin hydrolysis by free enzyme). Type of assay: biochemical. On the procedure:
The activity of the present compounds against β-lactamases was determined by measuring the IC50. The IC50 value represents the concentration of inhibitor required to effect a 50% loss of activity of free enzyme. The present 7-vinylidenecephems were evaluated as inhibitors of the β-lactamase of Enterobacter cloacae P99. The IC50 value of each compound was determined as follows. Following a 10 minute incubation of a dilute solution of enzyme (2.56 nM) and inhibitor (<0.64 mM), a […] of this incubation mixture was then further diluted into 1 mL nitrocefin solution, and the rate of hydrolysis was measured during a 1 minute period by monitoring the absorbance of nitrocefin as a function of time.

Where [1] appears, read: P99 β-lactamase, 10 minute incubation of enzyme (2.56 nM) and inhibitor (<0.64 mM), then dilution into nitrocefin solution, rate over 1 minute, read-out: IC50 (converted).
Setting [2] is: P99 β-lactamase, 10 minute incubation of enzyme (2.56 nM) and inhibitor (<0.64 mM), then dilution into nitrocefin solution, rate over 1 minute.

β-lactamase of Enterobacter cloacae P99, sequence (P05364 21-381): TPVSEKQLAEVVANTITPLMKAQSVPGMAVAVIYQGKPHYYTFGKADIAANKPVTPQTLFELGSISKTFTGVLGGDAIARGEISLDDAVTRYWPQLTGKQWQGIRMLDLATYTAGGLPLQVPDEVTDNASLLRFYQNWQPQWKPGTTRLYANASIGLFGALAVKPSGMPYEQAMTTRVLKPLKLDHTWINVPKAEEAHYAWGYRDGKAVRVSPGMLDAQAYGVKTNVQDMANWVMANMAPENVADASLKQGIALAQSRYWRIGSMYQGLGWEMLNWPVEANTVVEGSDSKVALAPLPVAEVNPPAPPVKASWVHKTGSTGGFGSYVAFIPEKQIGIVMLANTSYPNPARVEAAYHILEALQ

Usually IC50 stands for the concentration at which inhibition is half-maximal. Take `CC(=O)OCC1=C(C(=O)O)N2C(=O)C(=C=CC(C)(C)C)[C@H]2SC1` [Compound 13, Sodium Salt of 7-(2'α-t-Butylvinylidene) Cephalosporanic Acid]: the IC50 under setting [1] was 11600 nM. Consider `CC(=O)OCC1=C(C(=O)O)N2C(=O)C(=C=CC(C)(C)C)[C@H]2S(=O)(=O)C1` [Compound 16, Sodium Salt of 7-(2'α-t-Butylvinylidene) Cephalosporanic Acid Sulfone], for which the “fold better inhibitor than clavulanic acid” value is recorded as approximately 350 fold, the “fold better inhibitor than tazobactam” value is “approximately five” and the “β-lactamase inhibition (in words)” value is “most potent inhibitor”. For the same molecule, the IC50 (read-out: IC50 (converted)) was 135 nM.

For the molecule `CC(=O)OCC1=C(C(=O)[O-])N2C(=O)C(=C=CBr)C2SC1.[Na+]` (stereo not drawn) [Compound 14, Sodium Salt of 7-(2'α-Bromovinylidene) Cephalosporanic Acid], the IC50 under setting [2] stood at 6160 µg/mL.

Regarding `CC(C)(C)C=C=C1C(=O)N2[C@@H](C(=O)O)C(C)(C)S(=O)(=O)[C@H]12` [6-(2'α-t-butylvinylidene) penam sulfone, reference compound], the IC50 under setting [1] is 1240 nM.

On to “7-(2'α-t-butyl-2'β-deuteriovinylidene) cephem sulfone”, for which, under setting [2], the IC50 turned out to be 100 µg/mL.

`C=C=C1C(=O)N2C(C(=O)O)=C(COC(C)=O)CS(=O)(=O)[C@H]12` [Compound 17, 7-vinylidenecephem sulfone]: the half-inhibitory concentration (IC50) under setting [1] was 351 nM.

For the molecule `C=C=C1C(=O)N2C(C(=O)O)=C(COC(C)=O)CS[C@H]12` [Compound 15, Sodium Salt of 7-Vinylidene Cephalosporanic Acid], under setting [1], the IC50 was 91800 nM.
